Tests used:
Hepatotoxicity [1] = system: Hepatotoxicity;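 on HepSE Combined Scores: combined hepatic side effect score as listed in the training data of the Drug Induced Liver Injury Prediction System (DILIps)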;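 on HepSE cholecystitis: Cholecystitis-related hepatic side effect score drawn from the DILIps (drug-induced liver injury prediction) training data set; call rule not given here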;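 on HepSE cholelithiasis: hepatic side effect score for cholelithiasis, drawn from the DILIps training data for predicting drug-induced liver injury; call rule not given here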;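 on HepSE cirrhosis: cirrhosis hepatic side effect score taken from the DILIps (drug-induced liver injury prediction) training set; call rule not given here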;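 on HepSE hepatitis: Hepatitis-related hepatic side effect score taken from the training data of DILIps, a prediction system for drug-induced liver injury; call rule not given here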; on HepSE liver disease: call rule not given here;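 on HepSE liver function tests abnormal: hepatic side effect score taken from the DILIps (drug-induced liver injury prediction system) training data, here covering abnormal liver function test findings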
Hepatotoxicity [2] = system: Hepatotoxicity; remark: listed apart in the source;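 on HepSE Combined Scores: combined hepatic side effect score as listed in the training data of the Drug Induced Liver Injury Prediction System (DILIps)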;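 on HepSE cholecystitis: Cholecystitis-related hepatic side effect score drawn from the DILIps (drug-induced liver injury prediction) training data set; call rule not given here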;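 on HepSE cholelithiasis: hepatic side effect score for cholelithiasis, drawn from the DILIps training data for predicting drug-induced liver injury; call rule not given here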;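 on HepSE cirrhosis: cirrhosis hepatic side effect score taken from the DILIps (drug-induced liver injury prediction) training set; call rule not given here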;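 on HepSE hepatitis: Hepatitis-related hepatic side effect score taken from the training data of DILIps, a prediction system for drug-induced liver injury; call rule not given here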; on HepSE liver disease: call rule not given here;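 on HepSE liver function tests abnormal: hepatic side effect score taken from the DILIps (drug-induced liver injury prediction system) training data, here covering abnormal liver function test findings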
Hepatotoxicity [3] = system: Hepatotoxicity; remark: listed apart in the source;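 on HepSE Combined Scores: combined hepatic side effect score as listed in the training data of the Drug Induced Liver Injury Prediction System (DILIps)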;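 on HepSE cholecystitis: Cholecystitis-related hepatic side effect score drawn from the DILIps (drug-induced liver injury prediction) training data set; call rule not given here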;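 on HepSE cirrhosis: cirrhosis hepatic side effect score taken from the DILIps (drug-induced liver injury prediction) training set; call rule not given here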;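 on HepSE hepatitis: Hepatitis-related hepatic side effect score taken from the training data of DILIps, a prediction system for drug-induced liver injury; call rule not given here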; on HepSE liver disease: call rule not given here;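 on HepSE liver function tests abnormal: hepatic side effect score taken from the DILIps (drug-induced liver injury prediction system) training data, here covering abnormal liver function test findings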
Hepatotoxicity [4] = system: Hepatotoxicity; remark: listed apart in the source;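 on HepSE Combined Scores: combined hepatic side effect score as listed in the training data of the Drug Induced Liver Injury Prediction System (DILIps)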;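 on HepSE cholecystitis: Cholecystitis-related hepatic side effect score drawn from the DILIps (drug-induced liver injury prediction) training data set; call rule not given here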;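 on HepSE cirrhosis: cirrhosis hepatic side effect score taken from the DILIps (drug-induced liver injury prediction) training set; call rule not given here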;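 on HepSE hepatitis: Hepatitis-related hepatic side effect score taken from the training data of DILIps, a prediction system for drug-induced liver injury; call rule not given here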; on HepSE liver disease: call rule not given here;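 on HepSE liver function tests abnormal: hepatic side effect score taken from the DILIps (drug-induced liver injury prediction system) training data, here covering abnormal liver function test findings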
Hepatotoxicity [5] = system: Hepatotoxicity; remark: listed apart in the source; on HepSE liver disease: call rule not given here
Hepatotoxicity [6] = system: Hepatotoxicity; remark: listed apart in the source; on HepSE liver disease: call rule not given here
Hepatotoxicity [7] = system: Hepatotoxicity; remark: listed apart in the source
Hepatotoxicity [8] = system: Hepatotoxicity; remark: listed apart in the source
Hepatotoxicity [9] = system: Hepatotoxicity; remark: listed apart in the source
Hepatotoxicity [10] = system: Hepatotoxicity; remark: listed apart in the source
Hepatotoxicity [11] = system: Hepatotoxicity; remark: listed apart in the source
Hepatotoxicity [12] = system: Hepatotoxicity; remark: listed apart in the source
Hepatotoxicity [13] = system: Hepatotoxicity; remark: listed apart in the source
Hepatotoxicity [14] = system: Hepatotoxicity; remark: listed apart in the source

| SMILES | HepSE_hepatitis (Hepatotoxicity [1]) | HepSE_Combined Scores (Hepatotoxicity [2]) | HepSE_liver function tests abnormal (Hepatotoxicity [3]) | HepSE_cirrhosis (Hepatotoxicity [4]) | HepSE_hepatic necrosis (Hepatotoxicity [5]) | HepSE_bilirubinemia (Hepatotoxicity [6]) | HepSE_cholecystitis (Hepatotoxicity [7]) | HepSE_liver disease (Hepatotoxicity [8]) | HepSE_cholelithiasis (Hepatotoxicity [9]) | HepSE_elevated liver function tests (Hepatotoxicity [10]) | HepSE_hepatic failure (Hepatotoxicity [11]) | HepSE_liver fatty (Hepatotoxicity [12]) | HepSE_jaundice (Hepatotoxicity [13]) | HepSE_hepatomegaly (Hepatotoxicity [14]) | further results |
| --- | --- | --- | --- | --- | --- | --- | --- | --- | --- | --- | --- | --- | --- | --- | --- |
| COc1ccc2[nH]c([S+]([O-])Cc3ncc(C)c(OC)c3C)nc2c1 (stereo not drawn) [OMEPRAZOLE] | 1 | 7 | 0 | 0 | 1 | 1 | 0 | 1 | 1 | 0 | 1 | 0 | 1 | 0 | – |
| Cc1nccn1CC1CCc2c(c3ccccc3n2C)C1=O (stereo not drawn) [ONDANSETRON] | 0 | 2 | 0 | 0 | 0 | 0 | 0 | 1 | 0 | 0 | 1 | 0 | 0 | 0 | – |
| CCCCCCCCCCC[C@@H](C[C@@H]1OC(=O)[C@H]1CCCCCC)OC(=O)[C@H](CC(C)C)NC=O [ORLISTAT] | 1 | 1 | 0 | 0 | 0 | 0 | 0 | 0 | 0 | 0 | 0 | 0 | 0 | 0 | – |
| Cc1ccccc1C(OCCN(C)C)c1ccccc1 (stereo not drawn) [ORPHENADRINE] | 0 | 0 | – | 0 | 0 | 0 | 0 | 0 | 0 | – | 0 | 0 | 0 | 0 | HepSE_liver function tests abnormal (Hepatotoxicity [3]; Liver): 0; HepSE_elevated liver function tests (Hepatotoxicity [10]; Liver): 0 |
| CCOC(=O)C1=C[C@@H](OC(CC)CC)[C@H](NC(C)=O)[C@@H](N)C1 [OSELTAMIVIR] | 1 | 3 | 1 | 0 | 0 | 0 | 0 | 0 | 0 | 0 | 1 | 0 | 0 | 0 | – |
| Cc1onc(-c2ccccc2)c1C(=O)N[C@@H]1C(=O)N2[C@@H]1SC(C)(C)[C@@H]2C(=O)O [OXACILLIN] | 0 | 1 | 1 | 0 | 0 | 0 | 0 | 0 | 0 | 0 | 0 | 0 | 0 | 0 | – |
| C[C@]12COC(=O)C[C@@H]1CC[C@@H]1[C@@H]2CC[C@@]2(C)[C@H]1CC[C@]2(C)O [OXANDROLONE] | 0 | 2 | 0 | 0 | 1 | 0 | 0 | 0 | 0 | 0 | 0 | 0 | 1 | 0 | – |
| O=C(O)CCc1nc(-c2ccccc2)c(-c2ccccc2)o1 [OXAPROZIN] | 1 | 3 | 0 | 0 | 0 | 0 | 0 | 0 | 0 | 0 | 1 | 0 | 1 | 0 | – |
| NC(=O)N1c2ccccc2CC(=O)c2ccccc21 [OXCARBAZEPINE] | 0 | 2 | 1 | 0 | 0 | 0 | 0 | 0 | 1 | 0 | 0 | 0 | 0 | 0 | – |
| Clc1ccc(CO/N=C(\Cn2ccnc2)c2ccc(Cl)cc2Cl)c(Cl)c1 [OXICONAZOLE] | 0 | 0 | – | 0 | 0 | 0 | 0 | 0 | 0 | – | 0 | 0 | 0 | 0 | HepSE_liver function tests abnormal (Hepatotoxicity [3]; Liver): 0; HepSE_elevated liver function tests (Hepatotoxicity [10]; Liver): 0 |
| C[N+](C)(C)CCO.Cn1c(=O)c2[n-]cnc2n(C)c1=O [OXTRIPHYLLINE] | 0 | 0 | 0 | 0 | 0 | 0 | 0 | 0 | 0 | 0 | 0 | 0 | 0 | 0 | – |
| CCN(CC)CC#CCOC(=O)C(O)(c1ccccc1)C1CCCCC1 (stereo not drawn) [OXYBUTYNIN] | 0 | 1 | 1 | 0 | 0 | 0 | 0 | 0 | 0 | 0 | 0 | 0 | 0 | 0 | – |
| COc1ccc2c3c1O[C@H]1C(=O)CC[C@@]4(O)[C@@H](C2)N(C)CC[C@]314 [OXYCODONE] | – | – | – | – | – | – | – | – | – | – | – | – | – | – | HepSE_hepatitis (Hepatotoxicity [1]; Liver): 0; HepSE_Combined Scores (Hepatotoxicity [2]; Liver): 1; HepSE_liver function tests abnormal (Hepatotoxicity [3]; Liver): 0; HepSE_cirrhosis (Hepatotoxicity [4]; Liver): 0; HepSE_hepatic necrosis (Hepatotoxicity [5]; Liver): 0; HepSE_bilirubinemia (Hepatotoxicity [6]; Liver): 0; HepSE_cholecystitis (Hepatotoxicity [7]; Liver): 0; HepSE_liver disease (Hepatotoxicity [8]; Liver): 0; HepSE_cholelithiasis (Hepatotoxicity [9]; Liver): 0; HepSE_elevated liver function tests (Hepatotoxicity [10]; Liver): 0; HepSE_hepatic failure (Hepatotoxicity [11]; Liver): 0; HepSE_liver fatty (Hepatotoxicity [12]; Liver): 0; HepSE_jaundice (Hepatotoxicity [13]; Liver): 0; HepSE_hepatomegaly (Hepatotoxicity [14]; Liver): 1 |
| C[C@]12C/C(=C/O)C(=O)C[C@@H]1CC[C@@H]1[C@@H]2CC[C@@]2(C)[C@H]1CC[C@]2(C)O [OXYMETHOLONE] | 0 | 2 | 0 | 0 | 1 | 0 | 0 | 0 | 0 | 0 | 0 | 0 | 1 | 0 | – |
| CN(C)[C@@H]1C(O)=C(C(N)=O)C(=O)[C@@]2(O)C(O)=C3C(=O)c4c(O)cccc4[C@@](C)(O)[C@H]3[C@H](O)[C@@H]12 [OXYTETRACYCLINE] | 0 | 0 | 0 | 0 | 0 | 0 | 0 | 0 | 0 | 0 | 0 | 0 | 0 | 0 | – |
| CC[C@H](C)[C@@H]1NC(=O)[C@H](Cc2ccc(O)cc2)NC(=O)[C@@H](N)CSSC[C@@H](C(=O)N2CCC[C@H]2C(=O)N[C@@H](CC(C)C)C(=O)NCC(N)=O)NC(=O)[C@H](CC(N)=O)NC(=O)[C@H](CCC(N)=O)NC1=O [OXYTOCIN] | 0 | 0 | 0 | 0 | 0 | 0 | 0 | 0 | 0 | 0 | 0 | 0 | 0 | 0 | – |
| CC(=O)O[C@H]1C(=O)[C@@]2(C)[C@H]([C@H](OC(=O)c3ccccc3)[C@]3(O)C[C@H](OC(=O)[C@H](O)[C@@H](NC(=O)c4ccccc4)c4ccccc4)C(C)=C1C3(C)C)[C@]1(OC(C)=O)CO[C@@H]1C[C@@H]2O [PACLITAXEL] | – | – | – | – | – | – | – | – | – | – | – | – | – | – | HepSE_hepatitis (Hepatotoxicity [1]; Liver): 0; HepSE_Combined Scores (Hepatotoxicity [2]; Liver): 2; HepSE_liver function tests abnormal (Hepatotoxicity [3]; Liver): 0; HepSE_cirrhosis (Hepatotoxicity [4]; Liver): 0; HepSE_hepatic necrosis (Hepatotoxicity [5]; Liver): 1; HepSE_bilirubinemia (Hepatotoxicity [6]; Liver): 0; HepSE_cholecystitis (Hepatotoxicity [7]; Liver): 0; HepSE_liver disease (Hepatotoxicity [8]; Liver): 0; HepSE_cholelithiasis (Hepatotoxicity [9]; Liver): 0; HepSE_elevated liver function tests (Hepatotoxicity [10]; Liver): 1; HepSE_hepatic failure (Hepatotoxicity [11]; Liver): 0; HepSE_liver fatty (Hepatotoxicity [12]; Liver): 0; HepSE_jaundice (Hepatotoxicity [13]; Liver): 0; HepSE_hepatomegaly (Hepatotoxicity [14]; Liver): 0 |

From ChEMBL document CHEMBL1909294, “Translating clinical findings into knowledge in drug safety evaluation--drug induced liver injury prediction system (DILIps)” (PLoS Comput Biol, 2011)
